{"source": "PubChem BioAssay AID1259409", "about": "(Chemical Carcinogenesis Research Information System (CCRIS), 2018)", "origin": "cited, not measured here", "system": "rodent chemically induced tumor inhibition, incidence and multiplicity", "assay": "CCRIS tumor inhibitor studies", "details": "Carcinogen: N-BUTYL-N-(4-HYDROXYBUTYL)NITROSAMINE, 3817-11-6, Route [Inhibitor]: ORAL, Species: MOUSE, Target Tissue: Type of Lesion: URINARY BLADDER: TRANSITIONAL CELL CARCINOMA, Dose [Carcinogen]: 7.5 MG 1/WK FOR 8 WK, Promoter: NONE USED", "data": [{"compound": "CC1=C(/C=C/C(C)=C/C=C/C(C)=C\\C(=O)NCCCCO)C(C)(C)CCC1", "values": [{"measurement": "tumour outcome (control, treated, inhibition, significance)", "setting": "Dose [Inhibitor]: 1.5 MMOL/KG DIET DAILY FOR 133 D STARTING ONE WK AFTER THE FINAL CARCINOGEN DOSE (STUDY DURATION: 190 D), Strain/Sex: BDF/MALE", "result": "21/100 (21%), 17/100 (17%), 20%, not significant"}, {"measurement": "tumour outcome (control, treated, inhibition, significance)", "setting": "Dose [Inhibitor]: 1.5 MMOL/KG IN DIET FOR 133 D STARTING 1 WK AFTER LAST CARCINOGEN DOSE (STUDY DURATION: 190 D), Strain/Sex: DBF1/MALE", "result": "21/100 (21%), 17/100 (17%), 19%, not significant"}]}]}
